Measured values as given in patent publication US7153841B2, “Metal substituted non-centrosimmetrical phthalocyanine analogues, their preparation and use in photodynamic therapy and in vivo diagnostic” (L. Molteni & C. Dei Fratelli Alitti Societa Di Esercizio …, priority 2001, dated 2006).

Assays:
Type in all cases: cell-based
human fibroblasts = assay: Lack of non specific toxicity on human fibroblasts, with or without red light; conditions: DMEM 10% FCS, up to 40 μM
Protocol: The lack of non specific toxicity has been assessed by using human fibroblasts cultured for six days. Aliquots of the compound according to Ex. 4 at various concentrations have been added to cells in DMEM 10% FCS. After treatment the cell were irradiated for 10 min with red light (Intralux 4000 equipped with filter BP700/100Chroma Technology Corp.). In a parallel experiment cells were treated with the same amounts of compound of Ex. 4, however no light was provided.

[1] = molecular target: T1, repeat D of type III FN like of human Tenascin (TN) (Homo sapiens, UniProt P24821); assay: Binding specificity of labelled antibody by immunohystochemistry on human fibroblasts (GM6114); conditions: shown by immunohystochemistry experiments
T1 construct: determined by immunohystochemistry on human fibroblasts (GM6114); endogenous in cells; host or cells: human fibroblasts (GM6114)
T1 sequence (P24821 23-2201): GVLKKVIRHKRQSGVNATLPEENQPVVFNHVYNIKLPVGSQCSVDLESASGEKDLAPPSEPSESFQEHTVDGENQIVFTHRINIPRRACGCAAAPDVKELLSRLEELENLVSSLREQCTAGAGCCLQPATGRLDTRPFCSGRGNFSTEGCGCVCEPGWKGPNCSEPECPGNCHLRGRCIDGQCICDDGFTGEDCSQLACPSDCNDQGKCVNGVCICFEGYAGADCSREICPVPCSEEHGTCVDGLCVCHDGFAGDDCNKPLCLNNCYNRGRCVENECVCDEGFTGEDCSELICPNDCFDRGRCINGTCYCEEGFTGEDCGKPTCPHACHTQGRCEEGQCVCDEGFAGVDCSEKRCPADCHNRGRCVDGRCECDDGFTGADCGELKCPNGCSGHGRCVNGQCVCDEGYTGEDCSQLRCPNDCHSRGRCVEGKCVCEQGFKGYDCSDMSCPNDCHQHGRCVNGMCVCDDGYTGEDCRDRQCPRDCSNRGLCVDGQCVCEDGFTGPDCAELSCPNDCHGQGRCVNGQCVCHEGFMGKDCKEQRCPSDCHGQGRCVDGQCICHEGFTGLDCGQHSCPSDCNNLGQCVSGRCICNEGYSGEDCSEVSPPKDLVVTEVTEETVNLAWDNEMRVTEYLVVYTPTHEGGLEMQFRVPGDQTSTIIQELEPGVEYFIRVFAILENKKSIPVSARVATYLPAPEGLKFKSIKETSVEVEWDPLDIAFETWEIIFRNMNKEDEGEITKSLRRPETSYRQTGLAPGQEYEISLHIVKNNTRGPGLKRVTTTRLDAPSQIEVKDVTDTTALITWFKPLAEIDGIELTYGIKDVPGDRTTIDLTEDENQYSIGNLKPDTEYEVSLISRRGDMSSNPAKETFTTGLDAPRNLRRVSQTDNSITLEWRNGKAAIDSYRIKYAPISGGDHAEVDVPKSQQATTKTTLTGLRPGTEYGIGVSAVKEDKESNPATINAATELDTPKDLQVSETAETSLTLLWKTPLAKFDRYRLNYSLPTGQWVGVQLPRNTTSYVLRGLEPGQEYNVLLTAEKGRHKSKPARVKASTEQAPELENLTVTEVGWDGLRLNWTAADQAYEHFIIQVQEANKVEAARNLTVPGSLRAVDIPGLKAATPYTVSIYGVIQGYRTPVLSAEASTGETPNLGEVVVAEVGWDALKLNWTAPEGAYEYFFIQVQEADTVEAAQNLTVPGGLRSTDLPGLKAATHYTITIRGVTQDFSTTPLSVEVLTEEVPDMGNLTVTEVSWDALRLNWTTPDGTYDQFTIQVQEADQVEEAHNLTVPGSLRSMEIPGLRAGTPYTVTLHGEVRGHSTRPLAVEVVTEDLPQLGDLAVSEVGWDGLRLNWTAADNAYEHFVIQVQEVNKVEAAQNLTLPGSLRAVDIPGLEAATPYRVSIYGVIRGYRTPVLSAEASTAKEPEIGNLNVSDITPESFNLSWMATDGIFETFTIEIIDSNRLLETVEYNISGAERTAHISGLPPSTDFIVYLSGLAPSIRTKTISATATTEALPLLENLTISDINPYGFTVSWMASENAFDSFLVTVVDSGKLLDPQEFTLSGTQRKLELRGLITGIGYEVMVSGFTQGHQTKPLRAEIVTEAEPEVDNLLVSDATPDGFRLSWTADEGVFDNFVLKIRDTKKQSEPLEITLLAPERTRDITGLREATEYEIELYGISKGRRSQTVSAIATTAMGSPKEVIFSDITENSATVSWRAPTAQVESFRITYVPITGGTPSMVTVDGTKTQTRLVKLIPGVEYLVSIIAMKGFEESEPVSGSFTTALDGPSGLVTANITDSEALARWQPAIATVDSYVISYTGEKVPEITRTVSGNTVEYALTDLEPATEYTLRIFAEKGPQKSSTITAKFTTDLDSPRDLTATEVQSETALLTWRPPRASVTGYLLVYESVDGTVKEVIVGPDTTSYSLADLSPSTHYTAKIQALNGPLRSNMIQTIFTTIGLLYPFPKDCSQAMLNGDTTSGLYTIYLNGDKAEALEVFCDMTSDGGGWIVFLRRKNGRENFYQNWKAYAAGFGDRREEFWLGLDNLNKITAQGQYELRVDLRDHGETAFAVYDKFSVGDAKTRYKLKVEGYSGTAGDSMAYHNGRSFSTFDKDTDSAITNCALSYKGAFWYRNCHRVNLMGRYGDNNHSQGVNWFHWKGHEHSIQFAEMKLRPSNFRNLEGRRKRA
Text: Monoclonal Antibody α-D specific for the repeat D of type III FN like of human Tenascin (TN) (Balza et al. FEBS, 332,39 1993) has been labelled by using the compound of Ex. 4.
The labelling procedure has been carried out with the monoclonal bound to the Sepharose 4b immobilised antigen, represented from the recombinant TN containing repeats B,C,D type III FN-like.

C. albicans = assay: Photoinactivation of C. albicans (CFU vs. concentration, FIG. 1)
Text: FIG. 1 represents the variation of the colony forming units (CFU) of C. albicans vs. the concentration (μM) of the compounds according to Examples 7 and 8,indicated in the FIGURE as MRLP 090 and MRLP 091 respectively.
The following example refer to the activity against C. albicans.

Substance | mortality or morphology in comparison to not treated-not irradiated cells (human fibroblasts; irradiated 10 min with red light) | mortality or morphology in comparison to not treated-not irradiated cells (human fibroblasts; no light provided) | aggregation or protein denaturation of the antibody on labelling [1] | photoinactivation of C. albicans (variation of colony forming units vs. concentration, μM) (C. albicans)
2-[(4-hydroxycarbonyl)phenoxy]-1(4),8(11),15(18),22(25)-tri[2 -(morfolin-1-yl) ethoxy] zinc(II)phthalocyanine [Example 4] | No differences in mortality or morphology | No differences in mortality or morphology | does not cause aggregation to occur or protein denaturation | –
2-[(4-hydroxycarbonyl)phenoxy]-8(11),15(18),22(25)-tri[3-(trimethylammonium) phenoxy]zinc(II) phthalocyanine triiodide [Example 8] | – | – | – | photoinactivation
2-[(4-hydroxycarbonyl)phenoxy]-9(10),16(17),23(24)-tri[3-(trimethylammonium) phenoxy]zinc(II)phthalocyanine triiodide [Example 7] | – | – | – | photoinactivation
